Experimental data from PubChem BioAssay AID2305 (GlaxoSmithKline (GSK), 2010).
Values joined by “and” are separate entries in the source; they are usually repeats but may differ in a detail not shown here. Equal values may be shown once.

What follows are compounds tested on P. falciparum 3D7 growth, pLDH absorbance (assay: P. falciparum 3D7 growth inhibition, dose response, strain 3D7 (AID 2305)).

In order of falling IC50:
1. OCCOCn1cnc2cnc(N[C@H]3OC[C@H](O)[C@@H](O)[C@@H]3O)nc21  1640 nM
2. CN(CC(=O)Nc1cc(C(F)(F)F)ccc1-n1cncn1)Cc1nc2ccccc2s1  1410 nM
3. COc1cc2c(cc1S(=O)(=O)c1ccc(NC(=O)c3cccc(C(F)(F)F)c3)cc1)CCN(C)CC2  1380 nM
4. CN1CC[C@H](N(Cc2ccccc2F)c2ccc(C#N)c(Cl)c2)C1  1270 nM
5. COc1cc2nc(N3CCC(CNC(=O)c4ccc(-c5ccc(C(=O)N(C)C)cc5C)cc4)CC3)nc(N3CCN(C)CC3)c2cc1OC  1230 nM
6. Cc1ccccc1C1CCN(C2CCC(NC(=O)c3cc4cc(Cl)ccc4o3)CC2)CC1 (stereo not given)  1200 nM
7. CC[C@H](C)CNC(=O)c1cncc(-c2cccc(CN3CCC(N4CCCC4)CC3)c2)c1  1170 nM
8. O=C(Nc1ccc([N+](=O)[O-])cc1)Nc1cc(C(F)(F)F)ccc1F  1070 nM
9. CC(C)CNCc1cccc(-c2ccc(CNc3ccc4ncccc4c3)cc2)c1  1060 nM
10. Cc1cccc(CN2CCCN(Cc3ccc(C(=O)Nc4ccc(C)c(F)c4)cc3)CC2)c1  1060 nM
11. CC(C)CCn1c(Sc2ccc(C#N)c([N+](=O)[O-])c2)nnc1-c1ccccc1Cl  1030 nM
12. CCCCCCCCCCS(=O)(=O)N[C@H](COCc1cccc(Oc2ccccc2)c1)COP(=O)(O)OC  1020 nM
13. COCCOc1ccc(C(F)(F)F)cc1NC(=O)Cc1c(F)cccc1Cl  1000 nM
14. COc1ccc(C2N=C(N)N=C(N)N2c2ccc(Cl)cc2)cc1OC (stereo not given)  1000 nM
15. COc1ccccc1C1CCN(C2CCC(NC(=O)/C=C/c3ccc(C(F)(F)F)cc3F)CC2)CC1 (stereo not given)  990 nM
16. Cc1cccc(C(=O)Nc2ccnc(N(C)CCCN(C)Cc3cccc(O)c3)c2)c1  970 nM
17. CCCNCCc1ccc(NS(=O)(=O)c2cccc(-c3ccc(Cl)cc3)c2)cc1  970 nM
18. Cc1ccc(C(C)C)c(Oc2cnc(NC(CO)c3ccccc3)nc2N)c1 (stereo not given)  960 nM
19. COc1ccc(CC(C)NCC(O)c2cccc(Br)c2)cc1 (stereo not given)  960 nM
20. CCCCn1c(N)c(N(Cc2ccco2)C(=O)C=Cc2cc(OC)c3c(c2)OCCO3)c(=O)[nH]c1=O  950 nM
21. CCc1ccc(C2CCN(CCCCNC(=O)c3ccc(-c4ccc(C#N)cc4)cc3)CC2)c(OCCO)c1  940 nM
22. CC(C)C[C@H](Nc1ccc(C#N)c2ccccc12)C(=O)NC(C)(C)C12CC3CC(CC(C3)C1)C2  920 nM
23. Cc1ccc(-c2cc3nc4c(c(NCCCn5ccnc5)n3n2)CCC4)cc1  920 nM
24. COc1ccc2ncc(F)c(CCN3[C@@H]4CC[C@H]3CC(NCc3cc5c(cn3)OCS5)C4)c2n1 (stereo not given in full)  920 nM
25. COc1cc(/C=C/C(=O)NCC(CCNc2cc(=O)c3ccccc3[nH]2)NCc2cc(Br)cc(Br)c2)cc(OC)c1 (stereo not given)  910 nM
26. COc1ccc(Oc2ccccc2CNCC2CCN(CC3CCCCC3)CC2)cc1  900 nM
27. CN(C)c1ccc(CN2CCC(NC(=O)c3ccc(-c4ccccc4Cl)s3)CC2)cc1  900 nM
28. O=C(NCCN1CCCCC1)c1ccc(CNC(=O)c2ccc(O)c(-c3cccc(C(F)(F)F)c3)c2)cc1  890 nM
29. O=C(c1cccc(-c2cccc(-c3nc4ccc(F)cc4[nH]3)c2)c1)N1CCCCC1CN1CCC(O)C1 (stereo not given)  880 nM
30. COc1cc(Nc2ncc3c(C)nc(-c4cccc(Nc5ccc(CN6CCS(=O)(=O)CC6)cc5)c4)n3n2)cc(OC)c1OC  870 nM
31. CN(CCCCCNC(=O)/C=C/c1ccc(Cl)c(Cl)c1)CCc1c[nH]c2ccccc12  870 nM
32. CS(=O)(=O)CCNc1cc(N2CCc3ncnc(Nc4ccc(OCc5cccc(F)c5)c(Cl)c4)c3C2)ncn1  870 nM
33. C[C@@H]1CN(c2cnn(Cc3cccc(NC(=O)Nc4ccc(F)cc4[N+](=O)[O-])c3)c(=O)c2Cl)C[C@H](C)N1  870 nM
34. O=C(Cc1ccc([N+](=O)[O-])cc1)N1CCc2cc3nccc(N4CCN5CCC[C@H]5C4)c3cc21  840 nM
35. Cc1cc2c(/C=C/C(=O)NC3CCC(CCN4CCc5ccc(C#N)cc5CC4)CC3)cccc2[nH]1 (stereo not given)  840 nM
36. COc1ccccc1NS(=O)(=O)c1cc(C(=O)Nc2ccc(N3CCOCC3)c(S(=O)(=O)Nc3ccccc3Cl)c2)ccc1Cl  830 nM
37. COc1ccc(NC(=O)C2CCN(CCCCCNC(=O)/C=C/c3ccc(Cl)c(Cl)c3)CC2)cc1  830 nM
38. Cc1c(C)c2c(c(C)c1O)CC[C@](C)(C(=O)N1CCC(CCN3CCC(c4c[nH]c5ccccc45)CC3)CC1)O2  830 nM
39. CC(C)(C)c1ccc(CNC(=O)c2ccc(-c3nc4ccc(Cl)cc4[nH]3)cc2)cc1  820 nM
40. CCOc1ccc(Br)cc1/C=C/C(=O)Nc1ccc2c(c1)CN(C)CCC2  820 nM
41. C=CCc1ccc(C[C@H](NC(=O)OC(C)(C)C)C(=O)OC)cc1  810 nM
42. CC(C)CNCc1ccc(-c2cccc(CN(CCN(C)C)C(=O)CCC3CCCC3)c2)cc1  810 nM
43. O=C(Nc1ccccc1O)c1ccc(Oc2cccc(C(=O)Nc3ccccc3O)c2)cc1  800 nM
44. CCNc1cc(C(=O)N[C@@H](Cc2ccccc2)[C@H](O)CNCCC(C)(C)C)c(F)c(N2CCCCS2(=O)=O)c1  800 nM
45. COc1ccc2nccc([C@@H](O)CNCCCN(C)CCOc3cc(F)cc(F)c3)c2c1  790 nM
46. Cc1cc2c(cc1C(F)(F)F)N(C(=O)Nc1ccc(C(=O)NC3CCN(Cc4ccccc4)C3)cc1)CC2 (stereo not given)  780 nM
47. COc1ccc(-c2cnc3ccc(N4CCCC4)nn23)cc1OC  770 nM
48. CCCCNC(=O)[C@H](CC1CCCCC1)NC(=O)c1ccc(O)c(-c2cccc(C(F)(F)F)c2)c1  770 nM
49. COc1cc(NC(=O)c2ccc(-c3ccccc3)cc2)ccc1OCCCN1CCC(c2ccccc2)CC1  750 nM
50. COc1ccc(C(=O)CCC(=O)N(Cc2ccc(-c3ccc(CNCCc4ccccc4)cn3)cc2)C(C)CN(C)C)cc1F (stereo not given)  750 nM
51. O=C1NC(c2ccccc2)C2(CCN(CC(O)COc3cccc4ncccc34)CC2)O1 (stereo not given)  740 nM
52. COC(=O)c1ccc(OCC(O)CO)cc1O (stereo not given)  740 nM
53. CCOc1cc(C)c(C2CCN(CCCCNC(=O)c3ccc(NC(=O)c4ccc(Cl)cc4)cc3)CC2)cc1C  740 nM
54. Cc1ccc(Nc2ccnc3cc(-c4nccs4)ccc23)cc1C(O)c1ccccc1 (stereo not given)  740 nM
55. CCN(CC)CCN(Cc1ccc(-c2ccc(C(F)(F)F)cc2)cc1)C(=O)Cn1c(CCc2ccc(F)c(F)c2F)nc(=O)c2ccc(F)cc21  740 nM
56. CC1(C)CCC(=Cc2ccc(Cl)cc2)CC1(O)Cn1ccnc1 (stereo not given)  740 nM
57. O=C(NC1CCN(Cc2ccccc2)CC1)c1ccc(-c2nc3cc(Cl)c(Cl)cc3[nH]2)c(F)c1  740 nM
58. O=C(O)c1ccc(-c2c[nH]c3ncc(-c4ccc(Cl)cc4)cc23)cc1  730 nM
59. Cc1cc(O)c(CN2CCN(Cc3cccs3)CC2)cc1C(C)C  720 nM
60. CC(C)NCc1ccc(-c2ccc(CN3CCCC(c4ccccc4)C3)cc2)c(C(=O)NCC2CCCCC2)c1 (stereo not given)  720 nM
61. O=C(Nc1cccc(-c2csc(NC(=O)c3ccc4ccccc4c3)n2)c1)c1ccc2ccccc2c1  710 nM
62. O=C(NC(=O)c1ccccc1O)c1ccccc1O  700 nM
63. COCCC[C@H]1C(=O)O[C@H]2CCC[C@@H]21  700 nM
64. O=C(Cc1ccccc1)NC(c1ccco1)c1cc(Cl)c2cccnc2c1O (stereo not given)  690 nM
65. CC(C)n1ncc2c(C(=O)N3CCCC4CCCCC43)cc(C3CC3)nc21 (stereo not given)  680 nM
66. CCC1CN(S(=O)(=O)c2ccc3c(c2)NC(=O)CC(=O)N3)c2cc(Cl)ccc2O1 (stereo not given)  660 nM
67. FC(F)(F)c1cccc(Nc2nc3nonc3nc2NC2C3CC4CC(C3)CC2C4)c1 (stereo not given)  660 nM
68. Cc1ccc2[nH]c3c(NCCCN(C)C)ncnc3c2c1  650 nM
69. COC(=O)c1ccc(CC(C)NCC(O)c2cccc(Cl)c2Cl)cc1 (stereo not given)  550 nM
70. Clc1cccc(C23N=C(Nc4nc5ccccc5[nH]4)NC2(c2ccccc2)NC(Nc2nc4ccccc4[nH]2)=N3)c1 (stereo not given)  520 nM
71. O=C(C=Cc1cccc(F)c1)NC1CCC(CCN2CCc3ccc(-c4cnccn4)cc3CC2)CC1 (stereo not given)  450 nM
72. FC(F)(F)COc1ccc2ccccc2c1CCNCCCCNCCc1c(OCC(F)(F)F)ccc2ccccc12  430 nM
73. C(=N\Nc1nccc2sc(-c3cccnc3)cc12)/c1cccnc1  420 nM
74. Nc1cccc(CNCc2cccc(-c3ccc(-c4nc5ccccc5[nH]4)cc3)c2)c1  420 nM
75. COc1cc(NCCCNCc2cn(S(=O)(=O)c3ccccc3)c3ccccc23)nc2ccccc12  390 nM
76. CN1CCN(c2ccc(-c3cccc(NC(=O)c4ccc5ccccc5c4)c3)nn2)CC1  380 nM
77. COc1ccc2nccc([C@@H](O)CN3CCC(NC(=O)c4cccc(-c5cc(C)no5)c4)CC3)c2c1  340 nM
78. CN(C(=O)/C=C/c1cc(C(F)(F)F)ccc1F)C1CCN(CCCCCNC(=O)/C=C/c2ccc(Cl)c(Cl)c2)CC1  290 nM
79. COc1cc(C(F)(F)F)cc2[nH]c(CNCCCNc3nc4ccccc4[nH]3)cc12  280 nM
80. O=C(Nc1ccc(OC(F)(F)F)cc1)NC1CCN(c2ccnc3ccccc23)C1 (stereo not given)  240 nM
81. Cn1cncc1CNCc1ccc(-c2cccc(-c3nc4ccccc4[nH]3)c2)cc1  230 nM
82. CCCNC[C@@H](O)[C@H](Cc1ccccc1)NC(=O)c1cc(NCC)cc(N2CCCCS2(=O)=O)c1  220 nM
83. CC(C)CN(c1nc(C(=O)NNC(=O)[C@H](CC2CC2)NC(=O)c2cc3cc(OCCN4CCCCC4)ccc3o2)cs1)C1CC1  210 nM
84. CC(C)CN1C(=O)C(c2ccc(F)c(F)c2)=C(O)C1c1ccccc1 (stereo not given)  190 nM
85. O=C(O)c1ccc(OCOCOc2ccc(C(=O)O)c(O)c2)cc1O  190 nM
86. CC(=O)Nc1ccc(NC(=O)c2cc(-c3cc(Cl)ccc3O)n[nH]2)cc1  180 nM
87. Fc1ccc2nc(-c3cccc(-c4cccc(CNCCc5ccncc5)c4)c3)[nH]c2c1  170 nM
88. c1ccc(-c2nc(NCCCn3ccnc3)cc(-c3ccncc3)n2)cc1  170 nM
89. Cc1cccc2[nH]c(-c3ccc(-c4ccc(CN5CCN(c6ccncc6)CC5)cc4)cc3)nc12  160 nM
90. Fc1ccc2nc(-c3ccc(-c4cccc(CN5CCC(CCN6CCCCC6)CC5)c4)cc3)[nH]c2c1  140 nM
91. CN(C)c1ccnc2ccc(NC(=O)Nc3ccnc4ccccc34)cc12  130 nM
92. CCCCC1=CC2C(=O)C(C(=O)OC)=CN=C2C=C1OCc1ccccc1 (stereo not given)  40 nM
93. CC(C)c1cn2c3c(cc(C(=O)N[C@@H](Cc4ccccc4)[C@H](O)CNC4CCCCC4)cc13)N(C)S(=O)(=O)CC2  30 nM
94. CCC(C)(CC)C(=O)n1ncc2c3c(N)nc(N)nc3ccc21  10 nM

`CC(C)(C)c1cc(/C=C/C(=O)NC2CCC(CN3CCC(c4c[nH]c5ccccc45)CC3)CC2)cc(C(C)(C)C)c1O` (stereo not given) was tested, and the IC50 was 720 nM and 700 nM.
